Experimental data reported in ChEMBL document CHEMBL1201862, “PubChem BioAssay data set” (2004).
The source made the active and inactive calls. Rule as the data show it: actives have a measured IC50 and inactives only a lower limit.

Key:
Format in all cases: functional
[1] = target: T1, Apoptotic protease-activating factor 1 (Homo sapiens, UniProt O14727)
T1 sequence (O14727 whole entry): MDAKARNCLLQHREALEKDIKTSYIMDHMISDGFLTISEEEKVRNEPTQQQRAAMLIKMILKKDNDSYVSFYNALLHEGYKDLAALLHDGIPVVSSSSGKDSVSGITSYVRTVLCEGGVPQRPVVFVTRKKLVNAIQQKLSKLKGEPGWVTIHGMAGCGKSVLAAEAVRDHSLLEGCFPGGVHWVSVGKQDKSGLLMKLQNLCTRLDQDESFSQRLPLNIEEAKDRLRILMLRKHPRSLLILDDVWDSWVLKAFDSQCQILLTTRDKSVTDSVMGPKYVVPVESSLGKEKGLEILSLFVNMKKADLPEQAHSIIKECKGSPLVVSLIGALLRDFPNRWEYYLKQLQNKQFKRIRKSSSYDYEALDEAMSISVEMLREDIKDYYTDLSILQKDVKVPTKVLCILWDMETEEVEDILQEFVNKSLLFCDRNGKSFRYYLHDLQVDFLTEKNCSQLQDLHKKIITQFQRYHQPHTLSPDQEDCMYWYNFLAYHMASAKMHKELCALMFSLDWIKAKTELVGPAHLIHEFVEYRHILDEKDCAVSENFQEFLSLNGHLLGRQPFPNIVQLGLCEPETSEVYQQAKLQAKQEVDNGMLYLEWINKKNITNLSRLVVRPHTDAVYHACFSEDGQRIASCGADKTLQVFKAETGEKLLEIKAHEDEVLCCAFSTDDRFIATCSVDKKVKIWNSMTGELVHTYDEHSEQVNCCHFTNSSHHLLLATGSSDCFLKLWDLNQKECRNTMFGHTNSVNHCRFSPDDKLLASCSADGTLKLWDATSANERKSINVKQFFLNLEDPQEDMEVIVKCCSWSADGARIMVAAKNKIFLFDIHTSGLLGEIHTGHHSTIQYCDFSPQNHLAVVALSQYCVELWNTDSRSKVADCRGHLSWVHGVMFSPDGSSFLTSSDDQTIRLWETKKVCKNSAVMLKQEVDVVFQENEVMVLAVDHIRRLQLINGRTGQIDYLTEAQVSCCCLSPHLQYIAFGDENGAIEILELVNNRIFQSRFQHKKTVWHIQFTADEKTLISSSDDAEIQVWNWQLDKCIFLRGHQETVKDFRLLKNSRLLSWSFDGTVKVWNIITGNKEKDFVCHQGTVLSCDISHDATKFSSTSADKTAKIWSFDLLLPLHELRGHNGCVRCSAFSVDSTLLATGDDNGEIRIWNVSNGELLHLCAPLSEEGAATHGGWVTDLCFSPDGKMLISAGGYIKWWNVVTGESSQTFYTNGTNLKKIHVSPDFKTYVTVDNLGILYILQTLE

[2] = target: T2, Caspase-3 (Homo sapiens, UniProt P42574);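 also: Dose-response selectivity test against caspase-3 for candidate inhibitors of sentrin-specific proteases (SENPs)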
T2 sequence (P42574 whole entry): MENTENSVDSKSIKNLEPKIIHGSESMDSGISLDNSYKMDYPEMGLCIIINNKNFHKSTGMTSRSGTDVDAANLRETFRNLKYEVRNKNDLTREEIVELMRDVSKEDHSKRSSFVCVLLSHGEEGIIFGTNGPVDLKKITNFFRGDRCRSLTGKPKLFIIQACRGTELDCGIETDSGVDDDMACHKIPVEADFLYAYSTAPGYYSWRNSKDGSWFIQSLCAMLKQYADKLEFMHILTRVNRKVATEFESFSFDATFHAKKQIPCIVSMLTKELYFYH

[3] = target: T3, Sentrin-specific protease 7 (Homo sapiens, UniProt Q9BQF6);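 also: Luminescence-based dose-response confirmation of ultra-high-throughput screening hits, measuring inhibition of SENP7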
T3 sequence (Q9BQF6 whole entry): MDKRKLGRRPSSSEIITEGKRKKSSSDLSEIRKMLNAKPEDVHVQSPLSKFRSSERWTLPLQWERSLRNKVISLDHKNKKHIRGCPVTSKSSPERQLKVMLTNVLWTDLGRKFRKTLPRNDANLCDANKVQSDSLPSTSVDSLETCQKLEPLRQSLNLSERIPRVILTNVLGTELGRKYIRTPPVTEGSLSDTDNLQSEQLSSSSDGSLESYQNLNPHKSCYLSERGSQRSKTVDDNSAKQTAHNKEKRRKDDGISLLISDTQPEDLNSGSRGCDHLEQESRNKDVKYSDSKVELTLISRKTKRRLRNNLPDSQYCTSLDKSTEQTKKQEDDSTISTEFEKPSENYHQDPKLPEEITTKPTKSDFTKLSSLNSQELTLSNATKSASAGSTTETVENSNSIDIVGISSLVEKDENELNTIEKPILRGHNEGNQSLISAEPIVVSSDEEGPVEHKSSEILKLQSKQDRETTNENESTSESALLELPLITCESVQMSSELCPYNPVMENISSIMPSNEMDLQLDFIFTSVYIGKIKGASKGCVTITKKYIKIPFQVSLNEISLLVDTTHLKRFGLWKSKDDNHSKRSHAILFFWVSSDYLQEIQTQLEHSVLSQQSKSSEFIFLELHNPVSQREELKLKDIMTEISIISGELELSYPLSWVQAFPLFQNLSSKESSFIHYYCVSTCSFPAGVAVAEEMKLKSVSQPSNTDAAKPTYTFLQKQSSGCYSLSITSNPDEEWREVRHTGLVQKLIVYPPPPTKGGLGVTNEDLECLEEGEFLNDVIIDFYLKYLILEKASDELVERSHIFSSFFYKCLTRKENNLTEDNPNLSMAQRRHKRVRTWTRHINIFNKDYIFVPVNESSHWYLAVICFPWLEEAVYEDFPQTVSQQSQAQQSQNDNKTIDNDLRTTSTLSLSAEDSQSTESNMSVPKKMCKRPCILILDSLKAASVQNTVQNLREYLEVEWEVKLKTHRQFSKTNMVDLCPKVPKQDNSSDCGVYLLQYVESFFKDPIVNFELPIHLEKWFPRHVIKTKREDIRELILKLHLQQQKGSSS

[4] = target: T4, Sentrin-specific protease 8 (Homo sapiens, UniProt Q96LD8);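 also: luminescence read-out of SENP8 inhibition, dose-response confirmation following an ultra-high-throughput screen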
T4 sequence (Q96LD8 whole entry): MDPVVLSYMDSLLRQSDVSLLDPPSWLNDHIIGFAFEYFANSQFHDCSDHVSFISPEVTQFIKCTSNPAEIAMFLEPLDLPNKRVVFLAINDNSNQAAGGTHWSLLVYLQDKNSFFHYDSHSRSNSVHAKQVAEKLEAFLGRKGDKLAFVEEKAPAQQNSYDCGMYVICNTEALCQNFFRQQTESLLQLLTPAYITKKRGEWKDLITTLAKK

Measured: IC50

CC(C)N(C(=O)Nc1ccc2nsnc2c1)C(C)C
active: [1] 6.61 µM | [2] 5.81 µM | [3] 3.49 µM | [4] 2.41 µM

CC(C)n1cnc2c(NCc3ccccc3)cc(OCC3CCN(C)CC3)cc21
active: [1] 6.63 µM | [2] 7.82 µM | [3] 5.65 µM | [4] 4.97 µM

NS(=O)(=O)c1ccc(NC2=CC(=O)C(=O)c3ccccc32)cc1
active: [1] 2.08 µM | [2] 9.75 µM | [3] 7.93 µM | [4] 4.96 µM
